Test results published in BindingDB's records for doi:10.1016/j.bmc.2011.09.058 (National Chemical Laboratory (Csir-Ncl), 2011).

Target: T1, Papain (Carica papaya, UniProt P00784)
T1 sequence (P00784 whole entry): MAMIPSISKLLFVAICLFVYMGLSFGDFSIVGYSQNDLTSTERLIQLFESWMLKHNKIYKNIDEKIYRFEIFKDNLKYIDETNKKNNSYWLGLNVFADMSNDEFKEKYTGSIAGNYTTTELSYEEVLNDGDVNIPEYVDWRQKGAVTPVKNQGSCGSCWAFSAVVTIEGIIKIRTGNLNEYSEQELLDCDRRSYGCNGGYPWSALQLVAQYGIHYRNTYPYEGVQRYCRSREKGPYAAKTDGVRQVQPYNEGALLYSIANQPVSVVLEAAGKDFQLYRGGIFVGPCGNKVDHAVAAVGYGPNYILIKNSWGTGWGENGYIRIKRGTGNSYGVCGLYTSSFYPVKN
Experiment: Inhibition of papaya papain using BAPNA as substrate assessed as p-nitroaniline release by spectrophotometric analysis

| SMILES | IC50 |
| --- | --- |
| CCOP(=O)(CC=C(NC(=O)[C@H](CC(C)C)NC(=O)OCc1ccccc1)c1ccccc1)OCC | > 200 µM |
| CCOP(=O)(CC=C(NC(=O)[C@H](CC(C)C)NC(=O)OC(C)(C)C)c1ccccc1)OCC | > 200 µM |
| CCOP(=O)(CC=C(NC(=O)[C@H](Cc1c[nH]c2ccccc12)NC(=O)OCc1ccccc1)c1ccccc1)OCC | > 200 µM |
| CCOP(=O)(CC=C(NC(=O)[C@H](CC(C)C)NC(=O)OCC1c2ccccc2-c2ccccc21)c1ccccc1)OCC | > 200 µM |
